The record followed here is US5859333A, “Plants and processes for obtaining them” (Zeneca Limited, priority 1992, dated 1999).

One assay concerns the target T1, sweet corn SGP (Zea mays, UniProt P80607).
T1 construct: not recombinant
Description: Self-glucosylating protein (SGP) assay, incorporation of 14C-glucose from UDP-[14C]glucose into TCA-precipitable protein. It counts as biochemical. The following applies: for inhibitory effect on activity of sweet corn SGP: result in words; for stimulating effect of divalent cation on sweet corn SGP activity: concentration dependence measured, manganese at 5 mM. How it is done:
The reaction was stopped by the addition of 1 ml of 10% TCA (trichloroacetic acid). After standing for 10 minutes the sample was passed through a nitrocellulose filter, type HA 0.45 uM, washed with about 3 ml 10% TCA and approximately 10 ml of water and the filter dried under an infrared lamp. Following this, the filter was placed in 4 ml of scintillation liquid (Ecolume) and measured for ^14 C radioactivity in a Searle Delta 300 6890 liquid scintillation counter.
The radioactivity measured on the filter represents ^14 C-glucose that was incorporated into TCA-precipitable material (assuming no conversion to the glucose molecule into any other compound). […] Endogenously glucosylated SGP would not be detectable and could not be quantitated by this method.

Assay [1] addresses amylogenin (self-glucosylating protein, SGP) from maize (Zea mays) endosperm (Zea mays) (UniProt P80607).
Another assay has as its target T2, Rabbit muscle SGP (Oryctolagus cuniculus, UniProt P13280).
T2 construct: from tissue; host or cells: rabbit muscle
T2 sequence (P13280 1-333): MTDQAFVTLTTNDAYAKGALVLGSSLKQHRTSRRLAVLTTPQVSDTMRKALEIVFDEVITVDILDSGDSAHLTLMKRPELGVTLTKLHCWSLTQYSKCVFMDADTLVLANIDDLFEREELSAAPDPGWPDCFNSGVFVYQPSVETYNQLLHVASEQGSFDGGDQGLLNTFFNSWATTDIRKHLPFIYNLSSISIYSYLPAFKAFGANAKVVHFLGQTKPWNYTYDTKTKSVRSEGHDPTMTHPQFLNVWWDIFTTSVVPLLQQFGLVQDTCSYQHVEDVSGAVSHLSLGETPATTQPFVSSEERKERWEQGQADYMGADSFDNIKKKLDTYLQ
As to the kind of experiment: Self-glucosylation activity of rabbit muscle SGP (glycogenin). The assay is classed as biochemical. The following applies: for inhibition of the self-glucosylating protein in rabbit muscle: act as alternative substrates.

Assay [2] deals with proteins of molecular weight higher than SGP. The following applies: 16 fold purified extract, 24 hr.

Read-outs that look alike come from different tables or passages of the source. Where no end group is shown, it is not given here.

T1 sequence (P80607 whole entry): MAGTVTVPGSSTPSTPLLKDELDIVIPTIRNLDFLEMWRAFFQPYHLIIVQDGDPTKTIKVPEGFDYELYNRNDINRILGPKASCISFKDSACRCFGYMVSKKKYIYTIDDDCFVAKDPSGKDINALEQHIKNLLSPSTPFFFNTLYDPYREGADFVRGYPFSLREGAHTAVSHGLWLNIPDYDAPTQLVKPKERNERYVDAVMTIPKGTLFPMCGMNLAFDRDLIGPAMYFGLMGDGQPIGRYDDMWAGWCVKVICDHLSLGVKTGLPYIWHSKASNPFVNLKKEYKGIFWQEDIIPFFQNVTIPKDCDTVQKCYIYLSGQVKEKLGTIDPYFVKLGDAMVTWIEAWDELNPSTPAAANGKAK

Regarding `O=[N+]([O-])c1ccc(O[C@H]2O[C@H](CO)[C@@H](O)[C@H](O)[C@H]2O)cc1` [p-nitrophenyl-alpha-glucoside], at sweet corn SGP, the “inhibitory effect on activity of sweet corn SGP” value (from here on “inhibitory effect on activity”) was “no effect”.

On to TPCK-trypsin (enzyme), for which, in assay [1], the proteolysis (trypsinolysis) of SGP worked out at 70%.

For the compound `O=[N+]([O-])c1ccc(O[C@@H]2O[C@H](CO)[C@@H](O)[C@H](O)[C@H]2O)cc1` [p-nitrophenyl-beta-glucoside], on sweet corn SGP, the “inhibitory effect on activity” value is given as “no effect”.

For the compound `O=[N+]([O-])c1ccc(OC2O[C@H](CO)[C@@H](O[C@H]3O[C@H](CO)[C@@H](O[C@H]4O[C@H](CO)[C@@H](O)[C@H](O)[C@H]4O)[C@H](O)[C@H]3O)[C@H](O)[C@H]2O)cc1` (some centres unmarked) [p-nitrophenylmaltotriose], at Rabbit muscle SGP (result in words), the “inhibition of the self-glucosylating protein in rabbit muscle” value (“inhibition” for short) is reported as “inhibited”.

Turning to `O=[N+]([O-])c1ccc(OC2O[C@H](CO)[C@@H](O[C@H]3O[C@H](CO)[C@@H](O)[C@H](O)[C@H]3O)[C@H](O)[C@H]2O)cc1` (some centres unmarked) [p-nitro-phenylmaltose], the “inhibition” value at Rabbit muscle SGP (result in words) is recorded as “inhibited”.

As for `N=C(N)NCCC[C@H](N)C(=O)O` [arginine], the “inhibitory effect on activity” value against sweet corn SGP is “No effect”.

In the case of `[Ca+2]` [Calcium], on sweet corn SGP, the “stimulating effect of divalent cation on sweet corn SGP activity” value is “no stimulatory effect”.

On to `O=[N+]([O-])c1ccc(O)cc1` [p-Nitrophenol], for which the “inhibitory effect on activity” value against sweet corn SGP is “no effect”.

In the case of `O=C(O)CN(CCN(CC(=O)O)CC(=O)O)CC(=O)O` [EDTA, ethylene diamine tetra acetate], at sweet corn SGP (treated with EDTA), the “sweet corn SGP activity after treatment with chelator” value is “looses all its activity”.

Turning to “synthetic peptide comprising the same amino acid sequence as the glucosylated tryptic peptide T2: synthetic peptide with the sequence of tryptic peptide T2 (SEQ ID NO: 2, E G A N F V X G Y P F S L R) (EGANFVXGYPFSLR; not fully specified; X: residue not identified in the source)”, the “inhibitory effect on activity” value with sweet corn SGP is “No effect”.

As for `Nc1ncnc2c1ncn2[C@@H]1O[C@H](COP(=O)(O)OP(=O)(O)OP(=O)(O)O)[C@@H](O)[C@H]1O` [ATP, adenosine triphosphate], at sweet corn SGP, the IC50 was found to be 100 µM and the “inhibitory effect on activity” value is reported as “potent inhibitor”. Also, the “potency as inhibitor of sweet corn SGP relative to rabbit muscle SGP” value at sweet corn SGP (sweet corn SGP vs rabbit muscle SGP) came to 30 fold. The IC50 on Rabbit muscle SGP (read-out: concentration giving 50% inhibition of rabbit muscle SGP) is 3500 µM.

On to `[Mg+2]` [magnesium], for which the “maximum stimulating effect on sweet corn SGP” value at sweet corn SGP (at 10 mM concentration) is reported as “about 50%”.

As to `O=[N+]([O-])c1ccc(OC2O[C@H](CO)[C@@H](O[C@H]3O[C@H](CO)[C@@H](O[C@H]4O[C@H](CO)[C@@H](O[C@H]5O[C@H](CO)[C@@H](O)[C@H](O)[C@H]5O)[C@H](O)[C@H]4O)[C@H](O)[C@H]3O)[C@H](O)[C@H]2O)cc1` (some centres unmarked) [p-nitrophenyl- maltotetrose], the “inhibition” value against Rabbit muscle SGP (result in words) is recorded as “inhibited”.

Consider `[Cl][Mn][Cl]` [Manganese, MnCl2], for which, at sweet corn SGP, the “stimulating effect of divalent cation on sweet corn SGP activity” value was “most potent stimulating effect”. Further, the “stimulation of muscle SGP by divalent cation” value at Rabbit muscle SGP (result in words) is “stimulated”. Moreover, the “effect on radioglucosylation of higher molecular weight proteins” value in assay [2] (1 mM) is “proceeds”; in assay [2] (5 mM), “inhibited”.
